Source: patent publication US20090247520A1, “INHIBITORS OF ANTIGEN RECEPTOR-INDUCED NF-kappa B ACTIVATION” (The Burnham Institute for Medical Research, priority 2008, published 2009)

Tested on: Raf
Experiment: KINOMEscan competition binding assay, Raf
Set-up: species or system human
Settings: 10 μM
Excerpt: CID-2858522 is not a potent protein kinase inhibitor. Protein kinases play critical roles in NF-κB activation. PKCs are proximal kinases in the NF-κB pathways activated by PMA/Ionomycin and by T- and B-cell antigen receptors, while the IKKs are distal kinases operating in the terminal segments of these and other NF-κB activation pathways. We therefore tested whether CID-2858522 inhibits members of these kinase families by in vitro kinase assays. For these experiments, we tested PKC-beta and PKC-theta (the PKC family members implicated in TCR/BCR signaling), and IKK-beta (a component of the IKK complex) (FIG. 6). […] In addition to assessing these three kinases by conventional in vitro kinase assays, a kinome screen was performed using a high throughput screening method, KINOMEscan™, which is an active-site dependent competition binding assay in which human kinases of interest are fused to a proprietary tag (Ambit). The amount of kinase bound to an immobilized, active-site directed ligand is measured in the presence and absence of the test compound. […] Thus, CID-2858522 inhibits none of the protein kinases previously implicated in regulating NF-κB.
In Vitro Kinase Assays. PKC-beta, PKC-theta and IKK-beta in vitro kinase assays were performed using the HTScan Kinase Assay Kit (Cell Signaling, Danvers, Mass.) according to manufacturer's protocols. […]

SMILES: Cc1cc2nc(NCCCO)n(CC(=O)c3cc(C(C)(C)C)c(O)c(C(C)(C)C)c3)c2cc1C [Compound 1, 2-(2-(3-Hydroxypropylamino)-5,6-dimethyl-1H-benzo[d]imidazol-1-yl)-1-(3,5-di-tert-butyl-4-hydroxyphenyl)ethanone]
- inhibition of Raf: 57%
